Reference: patent publication US9434688B2, “Indole derivatives as selective androgen receptor modulators (SARMS)” (Janssen Pharmaceutica, NV, priority 2004, dated 2016)

Legend:
[1] = molecular target: T1, androgen receptor (Rattus norvegicus, UniProt P15207); assay: COS-7 Whole-Cell Androgen Receptor Binding Assay, Adenovirus Transduction; conditions: COS Binding; for % Inhibition: concentration of 3000 nM unless otherwise noted
T1 sequence (P15207 1-902): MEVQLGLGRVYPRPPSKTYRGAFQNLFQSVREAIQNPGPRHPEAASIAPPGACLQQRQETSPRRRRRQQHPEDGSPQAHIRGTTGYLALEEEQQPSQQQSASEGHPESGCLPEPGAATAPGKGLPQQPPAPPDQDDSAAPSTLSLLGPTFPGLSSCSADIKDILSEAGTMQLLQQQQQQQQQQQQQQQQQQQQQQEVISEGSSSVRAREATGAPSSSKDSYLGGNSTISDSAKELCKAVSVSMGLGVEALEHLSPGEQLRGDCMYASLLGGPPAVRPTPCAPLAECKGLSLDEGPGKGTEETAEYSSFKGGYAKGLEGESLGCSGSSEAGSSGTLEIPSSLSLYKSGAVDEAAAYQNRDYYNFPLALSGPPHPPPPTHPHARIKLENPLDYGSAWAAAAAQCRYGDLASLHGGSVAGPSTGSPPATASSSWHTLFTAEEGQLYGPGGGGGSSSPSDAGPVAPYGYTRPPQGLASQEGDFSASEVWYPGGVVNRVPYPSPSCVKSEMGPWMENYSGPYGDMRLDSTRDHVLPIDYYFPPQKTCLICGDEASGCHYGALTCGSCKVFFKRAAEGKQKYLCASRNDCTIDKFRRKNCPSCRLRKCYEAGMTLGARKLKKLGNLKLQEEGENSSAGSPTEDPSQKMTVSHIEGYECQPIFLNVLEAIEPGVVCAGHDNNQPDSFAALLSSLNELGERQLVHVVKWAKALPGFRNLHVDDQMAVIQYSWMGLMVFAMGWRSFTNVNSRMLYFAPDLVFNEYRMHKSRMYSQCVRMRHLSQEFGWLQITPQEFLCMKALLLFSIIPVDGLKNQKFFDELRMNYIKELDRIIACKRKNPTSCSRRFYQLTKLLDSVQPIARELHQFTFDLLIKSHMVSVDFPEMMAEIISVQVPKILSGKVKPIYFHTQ
Protocol: COS-7 cells were plated in 96-well plates at 20,000 cells per well, in a solution of DMEM/F12 (GIBCO) containing 10% (v/v) charcoal-treated fetal bovine serum (Hyclone) and lacking phenol red. The cells were then incubated overnight at 37° C. in 5% (v/v) humidified CO2.
Test compound solutions were prepared by diluting the test compound in 100% (v/v) DMSO, if necessary.
Next, 1 mL of DMEM/F12 lacking phenol red was pipetted into each of the wells of a 2-mL 96-well assay block. […] The wells were carefully mixed by pipette.
In a 15 mL or 50 mL sterile centrifuge tube, a dilution in DMEM/F12 of the adenovirus AdEasy+rAR at a moi of 1:50 per well was prepared.
The medium was removed from the 96-well plates by inversion and the plates dried very briefly, inverted, on a sterile towel. As soon as possible after medium removal, 40 μL of the diluted test compound was added to each well, in duplicate. […] The plates were then incubated for 48 hours at 37° C. in 5% (v/v) humidified CO2.
The medium was removed from the above incubated plates by inversion and dried. Each well was then washed with 0.35 mL of 1×PBS. The PBS was then removed from the plates by inversion and the plates dried.
To each well was then added 50 μL of 0.5% (v/v) Triton X-100 (Sigma) in 1×PBS and the plates placed on a rotary shaker for 5 min. The contents of each well were then transferred to an OptiPlate-96 (Packard) scintillation plate. To each well was then added 0.2 mL of Microscint-20 (Packard) and the wells counted on a TopCount (Packard).
Percent inhibition was determined by testing dilutions of the test compound (usually duplicates of 10 μM) in the binding assay. Counts per well were measured and percents of inhibition determined. […] Counts per well were measured and IC50s determined by linear regression.

[2] = molecular target: T1, androgen receptor; assay: L929 Androgen Receptor Functional Assay, Adenovirus Transduction; type: cell-based; design: expressed in transfected cells; host or cells: L929 cells transduced with adenovirus AdEasy+rAR; conditions: concentration of 3000 nM; for % Activity: L929 agonist testing; for % Inhibition: L929 antagonist testing with R1881
Protocol: L929 cells were plated in 96-well plates at 20,000 cells per well, in DMEM/F12 (GIBCO) containing 10% (v/v) charcoal-treated fetal bovine serum (Hyclone) and lacking phenol red. The plates were then incubated overnight at 37° C. in 5% (v/v) humidified CO2.
Test compound dilutions were prepared in 100% (v/v) DMSO, if necessary. Each dilution was made to 1250× the final desired assay concentration.
First, 2 mL of DMEM/F12 lacking phenol red was pipetted into the wells of a 2-mL 96-well assay block. Next, 4 μL of the 1250× test compound dilutions were pipetted into each well of the assay block. The mixtures within the well were then carefully mixed by pipette.
In a 15 mL or 50 mL sterile centrifuge tube, a 2.5 nM (2.5×) dilution of R1881 (methyl-trienolone) in DMEM/F12 lacking phenol red was prepared.
In a second 15 mL or 50 mL centrifuge tube a solution containing an equal volume of DMEM to the first and an equal volume of 100% (v/v) DMSO to the volume of R1881 used in the first tube was prepared.
In a 15 mL or 50 mL sterile centrifuge tube, a dilution in DMEM/F12 of the adenovirus AdEasy+rAR at an moi of 1:500 per well was prepared.
The medium was removed from the 96-well plates by inversion and dried, inverted, very briefly. As soon as possible after medium removal, 40 μL of the diluted unlabeled test compound was added to each well, in duplicate. To each well designated for antagonist testing was added 40 μL of the 2.5 nM R1881 dilution to the wells for antagonist testing. To each well designated for agonist testing was added 40 μL of the DMSO dilution. Then 20 μL of the diluted adenovirus were added to all wells. The plates were incubated for 48 hours at 37° C. in 5% (v/v) humidified CO2.
To each well was added 100 μL of Steady-Glo luciferase assay substrate (Promega) and the plates were placed on a rotary shaker for 1 min. The plates were then incubated at room temperature in the dark for one hour. The contents of each well were then transferred to a white microtiter plate (Packard) and read on a Luminoskan Ascent (Thermo Lab Systems).
L929 AR percent activity was determined by testing dilutions of the test compound using a concentration of 3000 nM unless otherwise noted. L929 percent inhibition was determined by testing dilutions of the test compound using a concentration of 3000 nM. […] Luciferase activity per well were measured and EC50s and IC50s determined by linear regression.

[3] = molecular target: T1, androgen receptor; assay: Androgen Receptor Binding Using Rat Ventral Prostate Cytosol; design: from tissue; host or cells: ventral prostate cytosol of castrated male Sprague Dawley or Wistar rats; conditions: Rat Cytosol; Concentration 3000 nM
Protocol: Rat Prostate Cytosol Preparation:
Male Sprague Dawley or Wistar rats (Charles River, 200-300 g) were used for each preparation. The day before preparing the cytosol, the rats were castrated using standard surgical procedures.
The rats were euthanized by carbon dioxide asphyxiation. The rat prostates were quickly removed and placed on ice in pre-chilled, pre-weighed 50 mL plastic tubes. No more than five prostates were placed into one tube. The tubes were then weighed and the prostate tissue wet weights calculated.
To the chilled prostate tissue was then added […] of chilled homogenization buffer. The homogenization buffer was freshly prepared by mixing 10 mM Tris.HCl, pH 7.4, 1 mM sodium molybdate, 1.5 mM EDTA, 1 mM dithiothreitol, 10% (v/v) glycerol and 1% protease inhibitor cocktail (Sigma P 8340).
The prostate tissue was homogenized in a cold room using a pre-chilled Polytron PT3000 homogenizer (Brinkmann). Homogenization was performed at a speed setting of 20, three times for 10 sec bursts. The tubes containing the prostate tissue was kept on ice while homogenizing. The homogenate was allowed to rest on ice for 20 sec between bursts.
The homogenate was then placed into pre-chilled 3 mL polycarbonate ultracentrifuge tubes and centrifuged in the TLA-100 rotor of a TL-100 ultracentrifuge for 12 min at 100,000 rpm at 4° C. The resulting supernatant was stored in 1 mL aliquots at −80° C. until needed.
Binding to the androgen receptor was determined according to the protocol described in Example 86 using the above prepared rat cytosol.
% Inhibition was determined by testing dilutions of the test compound (usually duplicates of 10 μM) in the binding assay. Counts per well were measured and percents of inhibition determined. […] Counts per well were measured and IC50s determined by linear regression.

[4] = test system: castrated male Sprague Dawley rats; assay: Ventral Prostate and Seminal Vesicle Weight In Vivo Assay; design: species or system rat; key: active: non weight adjusted prostate weight was ≦40 mg or the % Inhibition prostate weight, body weight adjusted was ≧40% @ 2 mg/day dosage; inactive: they did not meet the specified criteria defined above; conditions: immature castrated male rats, once daily for five days, with testosterone propionate 2 mg/kg subcutaneously
Protocol: Immature (approximately 50 g) castrated male Sprague Dawley rats (Charles River) were treated once daily for five days with test compound (usually given orally at 40 mg/kg in a volume of 0.3 mL, in 30% cyclodextrin or 0.5% methylcellulose vehicle) and with testosterone propionate (given subcutaneously by injection at the nape of the neck at 2 mg/kg, in a volume of 0.1 mL in sesame oil). On the sixth day, the rats were euthanized by asphyxiation in carbon dioxide. Ventral prostates and seminal vesicles were removed and their wet weights determined.
A test compound was said to be “active” if the non weight adjusted prostate weight was ≦40 mg or the % Inhibition prostate weight, body weight adjusted was ≧40% @ 2 mg/day dosage.

## C[S+]([O-])CCC(C)(O)c1cc2cc([N+](=O)[O-])c(C(F)(F)F)cc2[nH]1 (mixture of isomers) [compound 50]
[1]
  % Inhibition: 7%
[2]
  % Activity: 2%

## CC(O)(C[S+]([O-])Cc1ccccc1)c1cc2cc([N+](=O)[O-])c(C(F)(F)F)cc2[nH]1 (mixture of isomers) [compound 161]
[1]
  % Inhibition: 20%
[2]
  % Activity: 2%
[3]
  % Inhibition: 39%

## CC(O)(CSc1ccc(N)cc1)c1cc2cc(Cl)c(C(F)(F)F)cc2n1S(C)(=O)=O (racemic) [compound 125]
[1]
  % Inhibition: 30%
[2]
  % Activity: −5%

## COc1ccc(S(=O)(=O)CC(C)(O)c2cc3cc(Cl)c(C(F)(F)F)cc3[nH]2)cc1 (racemic) [compound 129]
[1]
  % Inhibition: 10%
[2]
  % Activity: −5%
  % Inhibition: −8%
[3]
  % Inhibition: 39.5%

## COc1ccc(SCC(C)(O)c2cc3cc(Cl)c(C(F)(F)F)cc3n2S(C)(=O)=O)cc1 (racemic) [compound 130]
[1]
  % Inhibition: −8%
[2]
  % Activity: −5%
[3]
  % Inhibition: 32.55%

## CCSCC(C)(O)c1cc2cc(Cl)ccc2n1S(C)(=O)=O (racemic) [compound 154]
[1]
  % Inhibition: 50%
[2]
  % Activity: 2%
  % Inhibition: 7%

## CCSCC(C)(O)c1cc2cc(F)c(Cl)cc2[nH]1 (racemic) [compound 206]
[1]
  % Inhibition: −40%
[2]
  % Activity: 5%
[4]
  active / inactive: inhibition of testosterone-enhanced prostate weight: active

## CCSCC(C)(O)c1[nH]c2cc(C(F)(F)F)c([N+](=O)[O-])cc2c1C (racemic) [compound 221]
[2]
  % Activity: −1%
[4]
  active / inactive: inhibition of testosterone-enhanced prostate weight: inactive

## CC(O)(CSCC(F)(F)F)c1cc2cc([N+](=O)[O-])c(C(F)(F)F)cc2[nH]1 (single isomer, unassigned) [compound 202]
[1]
  % Inhibition: 50%
[2]
  % Activity: 1%

## N#Cc1cc2cc(C3(O)CCSC3)[nH]c2cc1C(F)(F)F (stereo not drawn) [Compound #15]
[4]
  active / inactive: inhibition of testosterone-enhanced prostate weight: inactive

## OC1(c2cc3cc(Cl)c(C(F)(F)F)cc3[nH]2)CCSC1 (stereo not drawn) [compound 14]
[4]
  active / inactive: inhibition of testosterone-enhanced prostate weight: inactive

## O=[N+]([O-])c1cc2cc(C3(O)CCSC3)[nH]c2cc1C(F)(F)F (stereo not drawn) [compound 18]
[4]
  active / inactive: inhibition of testosterone-enhanced prostate weight: inactive

## CSCC(C)(O)c1cc2cc([N+](=O)[O-])c(C(F)(F)F)cc2[nH]1 (stereo not drawn) [compound 139]
[4]
  active / inactive: inhibition of testosterone-enhanced prostate weight: active

## CCSCC(C)(O)c1[nH]c2cc(C(F)(F)F)c(Br)cc2c1C (stereo not drawn) [compound 220]
[1]
  IC50: 34 nM

## CCSCC(C)(O)c1cc2cc(C#N)c(Cl)cc2[nH]1 (stereo not drawn) [compound 225]
[4]
  active / inactive: inhibition of testosterone-enhanced prostate weight: active
